Test results as given in patent US20230114728A1 (Venatorx Pharmaceuticals, Inc., priority 2019, published 2023).
Converted amounts (≈) assume the structure as drawn.

Legend:
E. coli K12 PBP3 = molecular target: T1, E. coli K12 PBP3 (Escherichia coli, UniProt P0AD68); experiment: biochemical; assay type: binding
T1 construct: made in house
In short: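 A. baumannii PBP2 (2.5 μM) and PBP3 (0.2 μM) were run in 25 mM Tris pH 8.0 buffer with Tween 20; E. coli PBP3 (1.5 μM) and N. gonorrhoeae PBP2 ([…]) in 50 mM Hepes pH 8.0 buffer.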

N. gonorrhoeae WHO Z = experiment: Liquid broth MIC in Fastidious broth; assay type: cell-based; settings: Neisseria gonorrhoeae, read-out: Minimum Inhibitory Concentration, N. gonorrhoeae WHO Z
In short: (§1)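 Broth microdilution in Fastidious broth with 2-fold compound series; inoculum from 24 h chocolate agar colonies, 5×10^5 CFU/mL start. Incubated ~24 hours at 36° C, 5% CO2. MIC read visually as lowest concentration giving <10% growth versus full-growth wells; strains carry mosaic PBP2.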

N. gonorrhoeae WHO Q = experiment: Liquid broth MIC in Fastidious broth; assay type: cell-based; settings: Neisseria gonorrhoeae, read-out: Minimum Inhibitory Concentration, N. gonorrhoeae WHO Q
In short: as §1

T1 sequence (P0AD68 1-577): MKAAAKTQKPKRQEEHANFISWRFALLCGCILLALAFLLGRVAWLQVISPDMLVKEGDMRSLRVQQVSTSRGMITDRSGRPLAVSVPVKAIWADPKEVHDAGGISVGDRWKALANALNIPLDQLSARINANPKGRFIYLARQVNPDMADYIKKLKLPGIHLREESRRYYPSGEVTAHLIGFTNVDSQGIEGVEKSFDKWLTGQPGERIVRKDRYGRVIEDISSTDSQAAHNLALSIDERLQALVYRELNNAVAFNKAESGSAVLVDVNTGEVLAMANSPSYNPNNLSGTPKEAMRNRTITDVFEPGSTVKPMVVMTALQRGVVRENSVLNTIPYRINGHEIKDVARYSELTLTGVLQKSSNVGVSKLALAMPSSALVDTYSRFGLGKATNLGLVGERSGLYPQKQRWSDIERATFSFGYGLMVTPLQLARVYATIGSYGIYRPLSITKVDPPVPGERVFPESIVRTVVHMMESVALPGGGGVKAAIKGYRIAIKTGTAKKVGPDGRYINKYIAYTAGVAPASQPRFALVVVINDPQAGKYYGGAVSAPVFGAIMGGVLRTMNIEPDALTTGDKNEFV

Q: What does the source list for `NCCN1CCN(C(=O)N[C@@H](C(=O)N[C@H]2Cc3cccc(C(=O)O)c3OB2O)c2ccc(O)cc2F)C(=O)C1=O` (single isomer, unassigned) [Example 89]?
A: EC50 (E. coli K12 PBP3): 30 to 500 µM; MIC (N. gonorrhoeae WHO Z): > 64 µg/mL; MIC (N. gonorrhoeae WHO Q): > 64 µg/mL

Q: Which results are given for `CCN1CCN(C(=O)N[C@@H](C(=O)N[C@H]2Cc3cccc(C(=O)O)c3OB2O)c2cc(Cl)c(O)cc2Cl)C(=O)C1=O` (single isomer, unassigned) [Example 91]?
A: EC50 (E. coli K12 PBP3): < 30 µM; MIC (N. gonorrhoeae WHO Z): 16 to 32 µg/mL (≈ 27 to 53.9 µM); MIC (N. gonorrhoeae WHO Q): 16 to 32 µg/mL (≈ 27 to 53.9 µM)

Q: How did the EC50 (E. coli K12 PBP3) turn out when `CCN1CCN(C(=O)N[C@H](C(=O)N[C@H]2Cc3cccc(C(=O)O)c3OB2O)c2cc(Cl)c(O)cc2Cl)C(=O)C1=O` (single isomer, unassigned) [Example 92] was run?
A: > 500 µM

Q: What about the MIC (N. gonorrhoeae WHO Z) of the same compound?
A: > 64 µg/mL

Q: What about the MIC (N. gonorrhoeae WHO Q) of the same compound?
A: > 64 µg/mL

Q: `CCN1CCN(C(=O)NC(C(=O)N[C@H]2Cc3cccc(C(=O)O)c3OB2O)c2ccc(C(N)=O)c(O)c2)C(=O)C1=O` (stereo partly drawn) [Example 45, (3R)-3-(2-(4-carbamoyl-3-hydroxyphenyl)-2-(4-ethyl-2,3-dioxopiperazine-1-carboxamido)acetamido)-2-hydroxy-3,4-dihydro-2H-benzo[e][1,2]oxaborinine-8-carboxylic acid] was tested. Which EC50 (E. coli K12 PBP3) did it give?
A: < 30 µM

Q: What about the MIC (N. gonorrhoeae WHO Z) of the same compound?
A: 16 to 32 µg/mL (≈ 28.2 to 56.4 µM)

Q: And the MIC (N. gonorrhoeae WHO Q)?
A: 16 to 32 µg/mL (≈ 28.2 to 56.4 µM)

Q: How did the EC50 (E. coli K12 PBP3) turn out when `NC(=O)c1ccc(C(NC(=O)N2CCN(CCF)C(=O)C2=O)C(=O)N[C@H]2Cc3cccc(C(=O)O)c3OB2O)cc1O` (stereo partly drawn) [Example 46, (3R)-3-(2-(4-carbamoyl-3-hydroxyphenyl)-2-(4-(2-fluoroethyl)-2,3-dioxopiperazine-1-carboxamido)acetamido)-2-hydroxy-3,4-dihydro-2H-benzo[e][1,2]oxaborinine-8-carboxylic acid] was run?
A: < 30 µM

Q: What about the MIC (N. gonorrhoeae WHO Z) of the same compound?
A: 16 to 32 µg/mL (≈ 27.3 to 54.7 µM)

Q: And the MIC (N. gonorrhoeae WHO Q)?
A: 16 to 32 µg/mL (≈ 27.3 to 54.7 µM)

Q: Which EC50 (E. coli K12 PBP3) does the source give for `NCCCN1CCN(C(=O)NC(C(=O)N[C@H]2Cc3cccc(C(=O)O)c3OB2O)c2ccc(C(N)=O)c(O)c2)C(=O)C1=O` (stereo partly drawn) [Example 47, (3R)-3-(2-(4-(3-aminopropyl)-2,3-dioxopiperazine-1-carboxamido)-2-(4-carbamoyl-3-hydroxyphenyl)acetamido)-2-hydroxy-3,4-dihydro-2H-benzo[e][1,2]oxaborinine-8-carboxylic acid] here?
A: 30 to 500 µM

Q: And the MIC (N. gonorrhoeae WHO Z)?
A: > 64 µg/mL

Q: And the MIC (N. gonorrhoeae WHO Q)?
A: > 64 µg/mL

Q: For `CCN1CCN(C(=O)NC(C(=O)N[C@H]2Cc3cccc(C(=O)O)c3OB2O)c2ccc(C(=O)O)c(OC)c2)C(=O)C1=O` (stereo partly drawn) [Example 48, (3R)-3-(2-(4-carboxy-3-methoxyphenyl)-2-(4-ethyl-2,3-dioxopiperazine-1-carboxamido)acetamido)-2-hydroxy-3,4-dihydro-2H-benzo[e][1,2]oxaborinine-8-carboxylic acid], which EC50 (E. coli K12 PBP3) is on record?
A: < 30 µM

Q: And the MIC (N. gonorrhoeae WHO Z)?
A: 1 to 2 µg/mL (≈ 1.72 to 3.43 µM)

Q: And the MIC (N. gonorrhoeae WHO Q)?
A: 4 to 8 µg/mL (≈ 6.87 to 13.7 µM)

Q: How did the EC50 (E. coli K12 PBP3) turn out when `O=C(NC(C(=O)N[C@H]1Cc2ccc(F)c(C(=O)O)c2OB1O)c1ncc(O)cc1F)c1ccnc(F)c1` (stereo partly drawn) [Example 53, (3R)-7-fluoro-3-(2-(3-fluoro-5-hydroxypyridin-2-yl)-2-(2-fluoroisonicotinamido)acetamido)-2-hydroxy-3,4-dihydro-2H-benzo[e][1,2]oxaborinine-8-carboxylic acid] was run?
A: 30 to 500 µM

Q: What about the MIC (N. gonorrhoeae WHO Z) of the same compound?
A: > 64 µg/mL

Q: What about the MIC (N. gonorrhoeae WHO Q) of the same compound?
A: > 64 µg/mL

Q: How did the EC50 (E. coli K12 PBP3) turn out when `CCN1CCN(C(=O)NC(C(=O)N[C@H]2Cc3ccc(C=O)c(C(=O)O)c3OB2O)c2csc(N)n2)C(=O)C1=O` (stereo partly drawn) [Example 57, (3R)-3-(2-(2-aminothiazol-4-yl)-2-(4-ethyl-2,3-dioxopiperazine-1-carboxamido)acetamido)-7-formyl-2-hydroxy-3,4-dihydro-2H-benzo[e][1,2]oxaborinine-8-carboxylic acid] was run?
A: 30 to 500 µM

Q: And the MIC (N. gonorrhoeae WHO Z)?
A: > 64 µg/mL

Q: What about the MIC (N. gonorrhoeae WHO Q) of the same compound?
A: > 64 µg/mL

Q: What does the source list for `CCN1CCN(C(=O)NC(C(=O)N[C@H]2Cc3ccc(CO)c(C(=O)O)c3OB2O)c2csc(N)n2)C(O)C1=O` (stereo partly drawn) [Example 58, (3R)-3-(2-(2-aminothiazol-4-yl)-2-(4-ethyl-2-hydroxy-3-oxopiperazine-1-carboxamido)acetamido)-2-hydroxy-7-(hydroxymethyl)-3,4-dihydro-2H-benzo[el][1,2]oxaborinine-8-carboxylic acid]?
A: EC50 (E. coli K12 PBP3): 30 to 500 µM; MIC (N. gonorrhoeae WHO Z): > 64 µg/mL; MIC (N. gonorrhoeae WHO Q): > 64 µg/mL

Q: Which results are given for `CCN1CCN(C(=O)NC(C(=O)N[C@H]2Cc3ccc(O[C@@H]4CN[C@H](C(=O)N(C)C)C4)c(C(=O)O)c3OB2O)c2ccccc2)C(=O)C1=O` (stereo partly drawn) [Example 59, (3R)-7-(((3S,5S)-5-(dimethylcarbamoyl)pyrrolidin-3-yl)oxy)-3-(2-(4-ethyl-2,3-dioxopiperazine-1-carboxamido)-2-phenylacetamido)-2-hydroxy-3,4-dihydro-2H-benzo[e][1,2]oxaborinine-8-carboxylic acid]?
A: EC50 (E. coli K12 PBP3): 30 to 500 µM; MIC (N. gonorrhoeae WHO Z): > 64 µg/mL; MIC (N. gonorrhoeae WHO Q): > 64 µg/mL

Q: For `CCN1CCN(C(=O)NC(C(=O)N[C@H]2Cc3ccc(OCCN)c(C(=O)O)c3OB2O)c2ccccc2)C(=O)C1=O` (stereo partly drawn) [Example 60, (3R)-7-(2-aminoethoxy)-3-(2-(4-ethyl-2,3-dioxopiperazine-1-carboxamido)-2-phenylacetamido)-2-hydroxy-3,4-dihydro-2H-benzo[e][1,2]oxaborinine-8-carboxylic acid], which EC50 (E. coli K12 PBP3) is on record?
A: 30 to 500 µM

Q: And the MIC (N. gonorrhoeae WHO Z)?
A: > 64 µg/mL

Q: And the MIC (N. gonorrhoeae WHO Q)?
A: > 64 µg/mL

Q: Which results are given for `CCN1CCN(C(=O)NC(C(=O)N[C@H]2Cc3cccc(C(=O)O)c3OB2O)c2cccc(O)c2)C(=O)C1=O` (stereo partly drawn) [Example 68, (3R)-3-(2-(4-ethyl-2,3-dioxopiperazine-1-carboxamido)-2-(3-hydroxyphenyl)acetamido)-2-hydroxy-3,4-dihydro-2H-benzo[e][1,2]oxaborinine-8-carboxylic acid]?
A: EC50 (E. coli K12 PBP3): 30 to 500 µM; MIC (N. gonorrhoeae WHO Z): 16 to 32 µg/mL (≈ 30.5 to 61 µM); MIC (N. gonorrhoeae WHO Q): > 64 µg/mL

Q: With `CCN1CCN(C(=O)NC(C(=O)N[C@H]2Cc3cccc(C(=O)O)c3OB2O)c2ccc(O)cc2O)C(=O)C1=O` (stereo partly drawn) [Example 69, (3R)-3-(2-(2,4-dihydroxyphenyl)-2-(4-ethyl-2,3-dioxopiperazine-1-carboxamido)acetamido)-2-hydroxy-3,4-dihydro-2H-benzo[e][1,2]oxaborinine-8-carboxylic acid] as the compound, how does the EC50 (E. coli K12 PBP3) read?
A: < 30 µM

Q: And the MIC (N. gonorrhoeae WHO Z)?
A: 16 to 32 µg/mL (≈ 29.6 to 59.2 µM)

Q: What about the MIC (N. gonorrhoeae WHO Q) of the same compound?
A: > 64 µg/mL

Q: For `CCN1CCN(C(=O)NC(C(=O)N[C@H]2Cc3cccc(C(=O)O)c3OB2O)c2ccc(O)cc2OC)C(=O)C1=O` (stereo partly drawn) [Example 70, (3R)-3-(2-(4-ethyl-2,3-dioxopiperazine-1-carboxamido)-2-(4-hydroxy-2-methoxyphenyl)acetamido)-2-hydroxy-3,4-dihydro-2H-benzo[e][1,2]oxaborinine-8-carboxylic acid], which EC50 (E. coli K12 PBP3) is on record?
A: 30 to 500 µM

Q: What about the MIC (N. gonorrhoeae WHO Z) of the same compound?
A: > 64 µg/mL

Q: And the MIC (N. gonorrhoeae WHO Q)?
A: > 64 µg/mL

Q: How did the EC50 (E. coli K12 PBP3) turn out when `CCN1CCN(C(=O)NC(C(=O)N[C@H]2Cc3cccc(C(=O)O)c3OB2O)c2cccc(N)c2)C(=O)C1=O` (stereo partly drawn) [Example 72, (3R)-3-(2-(3-aminophenyl)-2-(4-ethyl-2,3-dioxopiperazine-1-carboxamido)acetamido)-2-hydroxy-3,4-dihydro-2H-benzo[e][1,2]oxaborinine-8-carboxylic acid] was run?
A: < 30 µM

Q: What about the MIC (N. gonorrhoeae WHO Z) of the same compound?
A: 16 to 32 µg/mL (≈ 30.6 to 61.1 µM)

Q: What about the MIC (N. gonorrhoeae WHO Q) of the same compound?
A: 16 to 32 µg/mL (≈ 30.6 to 61.1 µM)

Q: `CCN1CCN(C(=O)NC(C(=O)N[C@H]2Cc3cccc(C(=O)O)c3OB2O)c2cccc([N+](=O)[O-])c2)C(=O)C1=O` (stereo partly drawn) [Example 75, (3R)-3-(2-(4-ethyl-2,3-dioxopiperazine-1-carboxamido)-2-(3-nitrophenyl)acetamido)-2-hydroxy-3,4-dihydro-2H-benzo[e][1,2]oxaborinine-8-carboxylic acid] was tested. Which EC50 (E. coli K12 PBP3) did it give?
A: 30 to 500 µM

Q: What about the MIC (N. gonorrhoeae WHO Z) of the same compound?
A: 16 to 32 µg/mL (≈ 28.9 to 57.8 µM)

Q: What about the MIC (N. gonorrhoeae WHO Q) of the same compound?
A: 16 to 32 µg/mL (≈ 28.9 to 57.8 µM)
